From PMC5556019, “Targeting Apolipoprotein E/Amyloid β Binding by Peptoid CPO_Aβ17-21 P Ameliorates Alzheimer’s Disease Related Pathology and Cognitive Decline” (Scientific Reports, 2017)
Numbered stars: 1 amine (or outer) side, 2 acyl side, 3 side chain; on linkers, the order of the positions; unused ones are H or OH. Bridge positions count the residues as written; N and C are the ends. Square brackets hold non-standard residues; d marks the D form. Peptide text beside a SMILES is read from it. ξ: configuration not given here. N(CH2CH2CO)Gly = O=C(CN(CCC(=O)[*:3])[*:1])[*:2]; Nphe = O=C(O)CNCc1ccccc1; Nleu = CC(C)CNCC(=O)O; ξP = O=C(O)C1CCCN1; Sar = CNCC(=O)O

Tested on: APP/PS1 Tg mice
Test: Cognitive tests (radial arm maze, object recognition)
Format: in vivo
Conditions: 0.2 mg per mouse i.p. twice weekly for 4 months
Procedure: The effect of CPO_Aβ17-21 P on Aβ deposition was tested in APP/PS1 Tg mice with plaque pathology. This AD mouse model develops plaque pathology from the age of 3 months. Animals were divided into two groups and received intraperitoneally (i.p.) injections of 0.2 mg of CPO_ Aβ17–21 P per mouse in sterile saline (n = 11, 5 male, 6 female) or saline alone (n = 10, 5 male, 5 female) as a control twice weekly for 4 months, beginning at age 3 months. During the treatment, veterinary staff monitored animals for any signs of toxicity, such as changes in body weight, physical appearance, and altered behavior. Animals were sacrificed a week after administration of the last treatment dose and behavioral testing. All mouse care and experimental procedures were compliant with guidelines of animal experimentation and were approved by the Institutional Animal Care and Use Committee at the New York University School of Medicine. […]
Spatial learning (working memory) was tested using a radial arm maze with eight radial 30-cm-long arms originating from the central space. […] The number of errors (entry into previously visited arms) was recorded during each session.
The spontaneous object recognition test measures short-term memory. […] The amount of time spent exploring each object within a defined zone of the area was automatically recorded by a tracking system (San Diego Instruments, San Diego, CA).

CC(C)CN1CC(=O)N2CCCC2C(=O)N(Cc2ccccc2)CC(=O)N(Cc2ccccc2)CC(=O)N(C)CC(=O)N(CC(N)=O)CCC1=O (centres unmarked) [CPO_Aβ17-21 P] ([Nleu][ξP][Nphe][Nphe][Sar][N(CH2CH2CO)Gly]-NH2; lactam N-6)
radial arm maze, number of errors (p < 0.01 two-way ANOVA treatment effect): significant cognitive improvement
novel object recognition (p = 0.016): significant cognitive improvement
